Assay results published in patent US10499645B2, “Nematicidal aqueous suspension concentrate compositions” (Monsanto Technology LLC, priority 2012, dated 2019).

Legend:
Type in all cases: physicochemical
[1] = Storage stability of polymorphs (XRD)
[2] = Grinding analysis (ball mill, XRD); conditions: ball mill 2 minutes at 4800 oscillations per minute
Procedure: Batches of 3-phenyl-5-(thiophen-2-yl)-1,2,4-oxadiazole polymorphic Forms I and II were ground using a CRESCENT WIG-L-BUG ball mill for 2 minutes at 4800 oscillations per minute (3.2 m/s) in two separate experiments. […] The Form II used in this experiment was obtained by recrystallization from the melt of Form I, as described in Example 14, above, […]

[3] = Mechanical pressure analysis (CARVER press, XRD); conditions: approximately 15,000 psi for approximately 20 seconds
Procedure: Batches of 3-phenyl-5-(thiophen-2-yl)-1,2,4-oxadiazole polymorphic Forms I and II were placed in a CARVER press and compressed at approximately 15,000 psi for approximately 20 seconds in two separate experiments. XRD analysis was performed on the samples. The resulting XRD pattern matched the starting material in both experiments, as shown in FIGS. 5A and 5B for Forms I and II, respectively. […] The Form II used in this experiment was obtained by recrystallization from the melt of Form I, as described in Example 14, above.

[4] = Non-competitive slurry experiments (XRD); conditions: ambient temperature
Procedure: In addition to the solvent recrystallization experiments, non-competitive slurry experiments were performed to search for new solid-state forms of 3-phenyl-5-(thiophen-2-yl)-1,2,4-oxadiazole. These experiments rely on solubility differences of different polymorphic forms (if the compound exists in different polymorphic forms).
Essentially, when a solid is mixed with solvent to create slurry, a saturated solution eventually results. The solution is saturated with respect to the polymorphic form dissolved. […] In addition, noncompetitive slurry experiments are often useful in identifying solvents that form solvates with the compound.
The slurry experiments were performed by exposing excess supplied material to solvents and agitating the resulting suspensions for several days at ambient temperature. The solids were filtered using a WHATMAN Grade 1 apparatus (11 μm pore size) and analyzed by XRD to determine the resulting form(s). To avoid possible desolvation or physical change after isolation, the samples were not dried before X-ray analysis.

Compound | storage stability / hydrate formation (XRD) ([1]; 75 and 84% RH, ambient temperature, 4 weeks, open Petri dishes) | polymorphic transformation on grinding [2] | change of polymorphic form under pressure [3] | form resulting from slurry experiments (summary) ([4]; approximately 12 days of slurring) | storage stability (XRD) ([1]; scintillation vial in a hood, ambient conditions, approximately 6 days) | form resulting from slurry experiments (summary) ([4]; approximately 7 days of slurring)
c1ccc(-c2noc(-c3cccs3)n2)cc1 [Form I, 3-phenyl-5-(thiophen-2-yl)-1,2,4-oxadiazole] | does not form a hydrate and appears to be thermodynamically stable over time at ambient conditions | no transformation | did not reveal any changes in the polymorphic form | Form I | – | –
c1ccc(-c2noc(-c3cccs3)n2)cc1 [Form II, 3-phenyl-5-(thiophen-2-yl)-1,2,4-oxadiazole] | – | transformed to Form I | did not reveal any changes in the polymorphic form | – | showed signs of transformation to Form I | Form I
